Measurements as given in patent publication EP0263213B1, “C20 Through C26 amino steroids” (THE UPJOHN COMPANY, priority 1986, dated 1988).
Structures can show the parent of a compound that is named as a salt.

Experiments:
[1] = test system: rat brain synaptosomes; assay: Malonyldialdehyde (MDA) Formation Assay; type: biochemical; conditions: active = inhibits MDA formation by 50% or more at 200»M or less; 10 min at 37°, pH 7.0, 150 uM Fe+++ and 50 uM Fe++
Experimental: Since lipid peroxidation is involved in the pathophysiology of central nervous system trauma, compounds which inhibit MDA formation are useful in treating the conditions listed below.
While not necessary to determine MDA formation, the above assays have been modified as follows: rat brain synaptosomes are prepared as described in the Example about the conjugated diene assay, except that the final wash of the synaptosomes and final suspension are in physiological (normal) saline in which the pH has been adjusted to 7.0. The synaptosomes are incubated for 10 min at 37° in physiological (normal) saline pH 7.0 (total volume = 100 ul) containing; 10 ul synaptosomal suspension, 10% DMSO plus or minus drug, 150 uM Fe⁺⁺⁺ and 50 uM Fe++. The incubation is started by the rapid addition of iron to the otherwise complete reaction. The iron solutions are prepared fresh as ferric chloride and ferrous ammonium sulfate in argon-purged water. Following the 10 min incubation, the reaction is stopped by the addition of 500 ul ice-cold 12% trichloroacetic acid prepared in 0.5 N hydrochoric acid. Water (300 ul) is then added along with 100 ul of freshly prepared thiobarbituric acid (3.3% in 0.5N sodium hydroxide) and 10 ul of 5mM desferrioxamine. The sample is then heated in a boiling water bath for 20 minutes. The samples are cooled and centrifuged for 15 minutes at 1500 xg and the absorbance of the supernatant fraction is read at 532 nm. The % inhibition of MDA formation is calculated by dividing the absorbance of sample containing drug by the absorbance of samples incubated without drug. Reaction blanks are samples incubated in the absence of iron. A compound that inhibits MDA formation by 50% or more at a concentration of 200»M or less is considered "active".

[2] = test system: arachidonic acid; assay: Arachidonic Acid Antagonism Assay (AAAA); type: in vivo; conditions: male CF-1 mice; for arachidonic acid antagonism: active = elevates the LD50 of sodium arachidonate outside the 95% confidence interval of the control LD50, test compound IV 15 minutes before; for % of Control LD₅₀ 100mg/kg: LD50 of sodium arachidonate, IV
Experimental: Since these metabolites contribute to the pathological problems associated with stroke, spinal trauma and head injury, compounds which antagonize arachidonic acid are useful in treating stroke, spinal trauma and head injury.
While not necessary to determine arachidonic acid antagonism, the above assay has been modified as follows: Charles River male CF-1 mice weighing 18-22g are treated IV with the test compound dissolved in 1.0% Tween-80 and 0.1% hydrochloric acid in distilled water, 0.2 ml total volume. Fifteen minutes later sodium arachidonate (90% pure) in physiological (normal) saline is injected into the tail vein. The LD₅₀ is measured using the Spearman-Karber method with a log dose interval of 0.05 (N=6). Compounds which elevate the LD₅₀ outside of the 95% confidence interval of the control LD₅₀ are considered to be "active".

[3] = test system: rat brain synaptosomes; assay: Conjugated Diene Formation Assay; type: biochemical; conditions: active = inhibits conjugated diene formation by 50% or more; 100 »M (or less) of drug, 100 »M hydrogen peroxide, 200 »M ferrous ammonium sulfate
From the text: The formation of conjugated dienes as assayed by Braughler, J. Neurochem., 44, 1282 (1985), Bucher, Fund. Applied Tox., 3, 222 (1983) and Tein, Arch. Biochem. Biophy., 216, 142 (1982) is a standard pharmacological laboratory procedure useful for identifying compounds which inhibit lipid peroxidation. Since lipid peroxidation is involved in the pathophysiology of central nervous system trauma, compounds which inhibit conjugated diene formation are useful in treating the conditions listed below.
44, 1282 (1985). Synaptosomal suspension (10 »l) is added to 1 ml of physiological (normal) saline containing 1 % Lubrol PX (Sigma Chemical Co. St. Louis, Mo.), 100 »M hydrogen peroxide and 100 »M (or less) of the drug to be tested prepared in either absolute ethanol or water depending upon solubility. The reaction is started by the rapid addition of 200 »M ferrous ammonium sulfate is prepared in argon-purged water. The sample is rapidly mixed and the change in absorbance at 232nm is followied in a Gilford Response Spectrophotometer equipped with a rapid sampler. Due to the rapidity of the reaction, rapid addition of the iron, rapid mixing and sampling are obligatory to the accuracy of the assay. For best results absorbance readings of one/sec should be started within 5 sec following the addition of iron. The initial linear rate of absorbance change during the first 30 sec of reaction are compared with the rate of a reaction containing all reagents except synaptosomes. The difference in rates is the rate of conjugated diene formation. Rates with drug are compared to rates obtained in the absence of drug and the % inhibition is calculated. A compound that inhibits conjugated diene formation by 50% or more is considered to be "active".

[4] = test system: ACAT; assay: AcylCoA:Cholesterol Acyltransferase (ACAT) Inhibition Assay; type: cell-based
From the text: ACAT esterifies arterial cholesterol which is a key reaction in the development of atherosclerosis. The procedure of Bell, Can. […] In the ACAT assay it is preferred to use Fu5AH cells, see Lipids 9, 526 (1974). According to this procedure, compounds which inhibit ACAT activity equal to, or greater than, that of chlorpromazine are considered "active".

Row | SMILES | inhibition of MDA formation [1] | arachidonic acid antagonism [2] | also measured
1 | COc1ccc2c(c1)CC[C@@H]1[C@@H]2CC[C@@]2(C)[C@H]1CC[C@]2(O)C(=O)CN1CCN(c2cc(N3CCCC3)nc(N3CCCC3)n2)CC1 [Example 125] | demonstrate such activity by inhibition of MDA formation | – | –
2 | C[C@H]1C[C@@H]2[C@H]([C@@H](O)C[C@@]3(C)[C@H]2CC[C@]3(O)C(=O)CN2CCN(c3ccccn3)CC2)[C@@]2(C)C=CC(=O)C=C12 [Example 21, 11β-17α-dihydroxy-6α-methyl-21-[4-(2-pyridinyl)-1-piperazinyl]pregna-1,4-diene-3,20-dione] | – | demonstrate arachidonic acid antagonism | –
3 | CCN(CC)c1cc(N2CCN(CC(=O)[C@@]3(O)CC[C@H]4[C@@H]5CCC6=CC(=O)CC[C@]6(C)C5=CC[C@@]43C)CC2)nc(N)n1 [Example 4, 21-[4-[2-Amino-6-(diethylamino)-4-pyrimidinyl]-1-piperazinyl]-17α-hydroxypregna-4,9(11)-diene-3,20-dione] | – | demonstrate arachidonic acid antagonism | inhibition of conjugated diene formation [3]: demonstrate such activity by inhibition of conjugated dienes
4 | C[C@H]1C[C@H]2[C@@H]3C[C@H](F)C4=CC(=O)CC[C@]4(C)C3=CC[C@]2(C)[C@@]1(O)C(=O)CN1CCN(c2cc(N3CCCC3)nc(N3CCCC3)n2)CC1.Cl.Cl [Example 118] | demonstrate such activity by inhibition of MDA formation | – | –
5 | C[C@]12CCC(=O)C=C1CC[C@@H]1[C@@H]2[C@H](O)C[C@@]2(C)[C@H]1CC[C@]2(O)C(=O)CN1CCN(c2ccc(F)cc2)CC1 [Example 29, 21-[4-(4-fluorophenyl)-1-piperazinyl]-11α,17α-dihydroxypregn-4-ene-3,20-dione dihydrochloride] | – | demonstrate arachidonic acid antagonism | –
6 | CN1CCN(c2cc(N3CCN(CC(=O)[C@@]4(O)CC[C@H]5[C@@H]6CCC7=CC(=O)CC[C@]7(C)C6=CC[C@@]54C)CC3)nc(N3CCN(C)CC3)n2)CC1.CS(=O)(=O)O.O [Example 19, 17α-Hydroxy-21-[4-[2,6-bis(4-methyl-1-piperazinyl)-4-pyrimidinyl]-1-piperazinyl]pregna-4,9(11)diene-3,20-dione methanesulfonate hydrate] | – | demonstrate arachidonic acid antagonism | % of Control LD₅₀ 100mg/kg [2]: 141%
7 | CCN(CC)c1nc(N2CCCCC2)cc(N2CCN(CC(=O)[C@@]3(O)CC[C@H]4[C@@H]5CCC6=CC(=O)CC[C@]6(C)C5=CC[C@@]43C)CC2)n1.Cl.O [Example 17] | demonstrate such activity by inhibition of MDA formation | – | % of Control LD₅₀ 100mg/kg [2]: 150%; % Inhibition of ACAT (5 »g/ml) ([4]; 5 »g/ml): 32.2%; inhibiting ACAT ([4]; active = inhibits ACAT activity equal to, or greater than, that of chlorpromazine): active in inhibiting ACAT
8 | C[C@@]12C(=CC(=O)C[C@@H]1C#N)CC[C@@H]1C2=CC[C@]2(C)[C@@H](CCN3CCN(c4cc(N5CCCC5)nc(N5CCCC5)n4)CC3)CC[C@@H]12.Cl.Cl.Cl.O [Example 110] | demonstrate such activity by inhibition of MDA formation | – | –
9 | CCNc1cccnc1N1CCN(CC(=O)[C@H]2[C@H](C)C[C@H]3[C@@H]4CCC5=CC(=O)C=C[C@]5(C)C4=CC[C@@]32C)CC1.Cl [Example 127, 21-[4-[3-(Ethylamino)-2-pyridinyl]piperazinyl]-16α-methylpregna-1,4,9(11)-triene-3,20-dione hydrochloride] | demonstrate such activity by inhibition of MDA formation | – | –
10 | CC(CN1CCN(c2cc(N3CCCC3)nc(N3CCCC3)n2)CC1)[C@H]1CC[C@H]2[C@@H]3CCC4=CC(=O)C=C[C@]4(C)[C@H]3CC[C@]12C.CS(=O)(=O)O.O (stereo partly drawn) [Example 112] | – | – | inhibition of conjugated diene formation [3]: demonstrate such activity by inhibition of conjugated dienes
11 | C[C@@H]1C[C@H]2[C@@H]3CCC4=CC(=O)C=C[C@]4(C)[C@H]3CC[C@]2(C)[C@H]1C(=O)CN1CCN(c2cc(N3CCCC3)nc(N3CCCC3)n2)CC1.Cl.Cl [Example 121] | demonstrate such activity by inhibition of MDA formation | – | –
12 | C[C@]12CC[C@H]3[C@@H](CCC4=CC(=O)CC[C@@]43C)[C@@H]1CC[C@@H]2CCN1CCN(c2cc(N3CCCC3)nc(N3CCCC3)n2)CC1.Cl [Example 107] | demonstrate such activity by inhibition of MDA formation | – | –
13 | C[C@]12CC[C@@H]3c4ccc(O)cc4CC[C@H]3[C@@H]1CC[C@]2(O)C(=O)CN1CCN(c2cc(N3CCCC3)nc(N3CCCC3)n2)CC1 [Example 129, 3,17α-Dihydroxy-21-[4-[2,6-bis(1-pyrrolidinyl)-4-pyrimidinyl]-1-piperazinyl]-19-norpregna-1,3,5-(10)-trien-20-one (E)-2-butenedioate 1:1 salt] | demonstrate such activity by inhibition of MDA formation | – | –
14 | C[C@]12CCC(=O)C=C1CC[C@@H]1C2=CC[C@@]2(C)[C@H]1CC[C@]2(O)C(=O)CN1CCC(O)(c2ccc(C(F)(F)F)cc2)CC1 [Example 5, 17α-Hydroxy-21-[4-hydroxy-4-(4-trifluoromethyl)phenyl-1-piperidinyl]pregna-4,9(11)-diene-3,20-dione] | – | – | inhibition of conjugated diene formation [3]: demonstrate such activity by inhibition of conjugated dienes
15 | C[C@]12CCC(=O)C=C1CC[C@@H]1C2=CC[C@]2(C)[C@@H](CCN3CCN(c4cc(N5CCCC5)nc(N5CCCC5)n4)CC3)CC[C@@H]12.Cl [Example 104, 21-[4-(2,6-Bis(1-pyrrolidinyl)-4-pyrimidinyl)-1-piperazinyl]pregna-4,9(11)-dien-3-one hydrochloride] | demonstrate such activity by inhibition of MDA formation | – | –
16 | C[C@@H]1C[C@H]2[C@@H]3CCC4=CC(=O)C=C[C@]4(C)[C@H]3[C@H](O)C[C@]2(C)[C@H]1C(=O)CN1CCN(c2cc(N3CCCC3)nc(N3CCCC3)n2)CC1 [Example 84] | – | – | inhibition of conjugated diene formation [3]: demonstrate such activity by inhibition of conjugated dienes
17 | COc1cccc(N2CCN(CC(=O)[C@@]3(O)CC[C@H]4[C@@H]5CCC6=CC(=O)CC[C@]6(C)C5=CC[C@@]43C)CC2)n1.CS(=O)(=O)O [Example 22, 17α-hydroxy-21-[4-(6-methoxy-2-pyridinyl)-1-piperazinyl]pregna-4,9(11)-diene-3,20-dione monomethanesulfonate] | – | demonstrate arachidonic acid antagonism | –
18 | C[C@]12C=CC(=O)C=C1CC[C@@H]1[C@@H]2[C@@H](O)C[C@@]2(C)[C@H]1CC[C@]2(O)C(=O)CN1CCN(c2ccccn2)CC1 [Example 25, 11β,17α-dihydroxy-21-[4-(2-pyridinyl)-1-piperazinyl]-pregna-1,4-diene-3,20-dione dihydrochloride] | – | demonstrate arachidonic acid antagonism | –
19 | C[C@]12C=CC(=O)C=C1CC[C@@H]1C2=CC[C@]2(C)[C@@H](C(=O)CN3CCN(c4cc(N5CCCC5)nc(N5CCCC5)n4)CC3)CC[C@@H]12.Cl.Cl [Example 111] | – | – | inhibition of conjugated diene formation [3]: demonstrate such activity by inhibition of conjugated dienes
